# Data from US5415869A, “Taxol formulation” (The Research Foundation of State University of New York, priority 1993, dated 1995).
# Where two headings read alike, the source gives them in different places.
# Tests used:
# [1] = Maximum Tolerated Dose / toxicity in healthy mice; assay type: in vivo; conditions: mouse, in vivo, iv
# Protocol: (§1) The Maximum Tolerated Dose ("MTD") for taxol-liposome formulations administered via the intravenous route was determined in healthy BALB/c female mice. Survey experiments to define the MTD were performed with two animals per group. Doses were escalated in 2-fold increments, starting at 5 mg/kg. Drug effects were determined by close observation of weight changes and survival. The highest non-lethal dose of taxol causing >10% weight loss within one week of cessation of dosing was defined as the MTD. Animals showing weight loss exceeding 20% were sacrificed, as changes of this magnitude often indicate lethal toxicity (E. Mayhew, unpublished observations). After completing the survey experiments, the approximate MTD was refined further using 3 groups of 8 mice.
# [2] = system: healthy BALB/c female mice; assay: Maximum Tolerated Dose / toxicity in healthy mice; assay type: in vivo; conditions: i.v., single dose
# Protocol: as §1
# [3] = system: C-26, a murine colon tumor line; assay: Cytostatic activity in vitro, C-26; assay type: cell-based
# From the text: (§2) FIG. 7 is a plot of cell lines versus IC50 which compares the growth-inhibitory properties of taxol/liposomes to those of free taxol. Cells were placed at a density of 2×10^4 /ml in multiwell plates and allowed to adhere overnight. Triplicate wells were exposed to various concentration of taxol, either added as liposomes (solid bar), as a 100× concentrated stock in DMSO (stippled bar), or absorbed to serum proteins (hatched bar) in the absence of organic solvent. […] Experiments were repeated at least twice. Cell lines are as follows: Colon-26: murine colon carcinoma; B16: murine melanoma; B16F10: highly-metastatic variant of B16 murine melanoma; L1210: murine leukemia; 9L: rat gliosarcoma; A12la, Hcy-lb, and A90: human ovarian tumor cell lines.
# [4] = system: A121a, a human ovarian tumor line; assay: Cytostatic activity in vitro, A121a; assay type: cell-based; conditions: 72 hr
# From the text: as §2
# human tumor lines = assay: Cytostatic activity in vitro, human tumor lines; assay type: cell-based; conditions: human tumor lines more sensitive than C-26
# From the text: as §2
# tumor cell lines = assay: Cytostatic activity in vitro, variety of tumor cell lines; assay type: cell-based; conditions: across tumor cell lines
# From the text: as §2
# 9L rate gliosarcoma = assay: Cytostatic activity in vitro, 9L; assay type: cell-based, rat; conditions: 0.1% DMSO vs drug dissolved directly in serum-containing growth medium
# From the text: as §2
# A90 human ovarian tumor = assay: Cytostatic activity in vitro, A90; assay type: cell-based; conditions: 0.1% DMSO vs drug dissolved directly in serum-containing growth medium
# From the text: as §2
# [5] = system: Colon-26 (C-26), a murine colon tumor model; assay: Antitumor activity in one dose, s.c. Colon-26; assay type: in vivo, BALB/c mice
# Protocol: Subcutaneous Colon-26 tumors were initiated and checked daily. When the tumor was measurable (day 8), a single intravenous bolus dose of taxol was given, either in Cremophor EL®/ethanol (Diluent 12) or in liposomes (indicated by the filled circle along the abscissa). Untreated controls received injections of equivalent volumes of saline or Diluent 12 (diluted 1:3) without taxol (panel A). […]
# (§3) In all experiments, the tumor volume of each animal was measured frequently, and the data was subjected to statistical analysis using an BMDP 1L program. The median time required for the tumor to reach 1500 mm^3 was determined for each treatment group (as indicated by the insert). […]
# Subcutaneous tumors on the left flank were initiated by injection of 10^6 viable cells in a volume of 0.1 ml. […] The dose per mouse was adjusted on the basis of its weight, determined at the time of treatment. […] Animal weight and tumor volume was measured five times weekly until the tumor volume reached 2000 mm^3, at which time animals were sacrificed for humane reasons.
# [6] = system: Colon-26 (C-26), a murine colon tumor model; assay: Antitumor activity in four doses, s.c. Colon-26; assay type: in vivo, BALB/c mice; conditions: 4 i.v. doses
# Protocol: Subcutaneous Colon-26 tumors were initiated. When the tumor was measurable (day 7), intravenous treatment was initiated and was repeated on days 8, 12, and 13 (as indicated by the filled circles along the abscissa). Untreated controls received injections of saline or Diluent 12 (diluted 1:3) without taxol (panel A). Treatment with liposome-based taxol formulations consisted of 20, 30, or 40 mg/kg doses of the following: taxol, and, PG, and PC multilamellar vesicles ("MLV") (B), taxol, PG, and PC SUV (C), or taxol, PEG-DPPE, and PC SUV (D). Alternatively, free taxol in Diluent 12 (diluted 1:3 with saline), was administered at doses of 10, 20, or 30 mg/kg (E). […] For humane reasons, animals were sacrificed when tumor volume exceeded 2000mm^3.
# as §3
# Subcutaneous tumors on the left flank were initiated by injection of 10^6 viable cells in a volume of 0.1 ml. […] The dose per mouse was adjusted on the basis of its weight, determined at the time of treatment. […] Animal weight and tumor volume was measured five times weekly until the tumor volume reached 2000 mm^3, at which time animals were sacrificed for humane reasons. […]
# [7] = system: advanced and refractory ovarian cancer; conditions: phase II, heavily-pretreated patients; cited from earlier work
# metastatic breast cancer = conditions: phase II, pretreated patients; cited from earlier work
# [8] = system: Colon-26 (C-26), a murine colon tumor model; assay: Antitumor activity in nine doses, s.c. Colon-26
# Protocol: FIGS. 3A-C show plots of mean tumor size versus days after tumor implantation which indicates the antitumor effect of nine doses of free- or liposomal taxol on Colon-26 tumors. Subcutaneous Colon-26 tumors were initiated. When the tumor was measurable (day 8), treatment was initiated. Animals were dosed 3 times weekly, and treatment was given for 3 weeks, as indicated by the filled circle along the abscissa. Untreated controls received injections of saline or Diluent 12 (diluted 1:3) without taxol (panel A). Treatment with liposome-based taxol formulations consisted of 10, 40, or 60 mg/kg doses with taxol, PG, and PC SUV (B). Alternatively, free taxol in Diluent 12 (diluted 1:3 with saline), was administered at doses of 10, 20, or 30 mg/kg (C). […] Each treatment group consisted of ten animals. For humane reasons, animals were sacrificed when tumor volume exceeded 2000 mm^3.
# In all experiments, the tumor volume of each animal was measured frequently, and the data was subjected to statistical analysis using an BMDP 1L program. The median time required for the tumor to reach 1500 mm^3 was determined for each treatment group (as indicated by the insert).
# The viability of cells was >80% by trypan blue exclusion.
# Subcutaneous tumors on the left flank were initiated by injection of 10^6 viable cells in a volume of 0.1 ml. Mice were then randomized into various treatment groups and numbered. The dose per mouse was adjusted on the basis of its weight, determined at the time of treatment. Treatment was started 7 or 8 days after tumor implantation, and consisted of i.v. injections through the tail vein. Buffer or Diluent 12 without taxol were used as control treatments. Animal weight and tumor volume was measured five times weekly until the tumor volume reached 2000 mm^3, at which time animals were sacrificed for humane reasons. Tumor volume was determined by measuring three orthogonal diameters of the tumor, and was calculated as 1/2 of the product of the diameters (Begg, A. C., "Principles and Practices of the Tumor Growth Delay Assay," Rodent Tumor (R. F. Kallman (ed.)), pp. 114-121, New York:Pergammon Press, (1987), which is hereby incorporated by reference). The data was analyzed for statistical significance using the BMDP 1L program (BMDP Statistical Software Inc.; Los Angeles, Calif.).
# [9] = free taxol 20 mg/kg (cumulative 180 mg/kg)
compound,measurement,setting,value
CC(=O)O[C@H]1C(=O)[C@@]2(C)[C@H]([C@H](OC(=O)c3ccccc3)[C@]3(O)C[C@H](OC(=O)[C@H](O)[C@@H](NC(=O)c4ccccc4)c4ccccc4)C(C)=C1C3(C)C)[C@]1(OC(C)=O)CO[C@@H]1C[C@@H]2O [taxol],MTD,"[1]; owing to the toxicity of Diluent 12, read-out: dose of free taxol that could be given as a single injection",< 35 mg/kg
same,MTD,"[1]; single dose, read-out: MTD, single dose",~30 mg/kg
same,"MTD, single dose",[2],30 mg/kg
same,effect of DMSO on cytostatic activity,[3]; C-26,not affected by DMSO
same,IC50,"[3]; Mus musculus, C-26, 72 hr",90 ± 10 µM
same,IC50,[4],1.5 ± 0.7 µM
same,sensitivity to taxol relative to C-26,human tumor lines,at least 10 fold
same,variation of sensitivity to free taxol,tumor cell lines,~100 fold
same,enhancement of free taxol activity by DMSO,9L rate gliosarcoma,approximately 8 fold
same,enhancement of free taxol activity by DMSO,A90 human ovarian tumor,approximately 8 fold
same,effect on tumor growth,"[5]; single i.v. dose on day 8, free taxol 15, 25, 30 mg/kg, liposomes 25, 35, 45 mg/kg, vs controls",showed no effect on tumor growth
same,"tumor growth delay, statistical significance (BMDP 1L)","[5]; single i.v. dose, time to reach 1500 mm^3",no significant delay in tumor growth compared to vehicle or buffer controls (p.0.05)
same,effect on tumor growth,"[6]; days 7, 8, 12, 13, free taxol 10, 20, 30, liposomes 20, 30, 40 mg/kg per injection",showed no effect on tumor progression
same,"tumor growth delay, statistical significance (BMDP 1L)",[6]; vs buffer or vehicle controls,"no significant delay in tumor growth at the dose levels tested, compared to buffer or vehicle controls (p>0.05)"
same,response rate,[7],30%
same,overall response rate,metastatic breast cancer,56%
same,effect on tumor progression,"[8]; 9 doses, any dose (10, 20, 30 mg/kg per injection)",gave no delay in tumor progression at any dose
same,"tumor growth delay, statistical significance (BMDP 1L)","[8]; 9 doses, time to reach 1500 mm^3","No dose of free taxol, up to and including lethal concentrations, had a significant effect on tumor progression"
same,effect on tumor progression,[8]; [9],no effect was observed on tumor progression
same,survival,[8]; [9],most animals survived
same,tolerability of individual injections,[8]; free taxol 30 mg/kg,tolerated as individual injections
same,lethality,[8]; free taxol 30 mg/kg per injection,cumulatively lethal to all animals by day 21
